The text below walks through data of patent publication US20240024291A1, “Uses of Dihydroorotate Dehydrogenase Inhibitors” (University of Maryland, Baltimore, priority 2022, published 2024).

Assay [1] has as its system 08-387 glioblastoma neurosphere line. Nature of the assay: gH2AX foci immunofluorescence (DNA damage). Format: cell-based, human. The conditions noted are these: IC50 dose. How it is done:
(§1) The 913, 3691, 08-387, and 1079 glioblastoma neurosphere-derived cells (1×10^4) were treated with DMSO (control) or IC50 concentration of compound 1 and cultured in either normoxia or hypoxia for 48 hours. Cells were spun with a Milles Scientific Cyto-Tek Model 4325 cytocentrifuge slide centrifuge onto Superfrost slides (VWR-48311-703) at 1500 rpm for 5 minutes. Slides were rinsed briefly with Hanks Balanced Salt Solution (HBSS), fixed in 4% paraformaldehyde in PBS, and rinsed with HBSS twice to remove any residual fixative. Cells were permeabilized with PBS containing 0.1% Triton-X100 (PBST) for 15 minutes, then blocked for 1 hour with PBST with 5% BSA. The slides were incubated overnight at 4° C. with Phospho-H2AX antibody (see above), diluted 1:250 in PBST containing 5% BSA. Slides were rinsed three times with HBSS, then incubated for one hour at room temperature with donkey anti-mouse, Alexa488-conjugated, secondary antibody diluted 1:500 in PBST containing 5% BSA (see above). Cell nuclei were counterstained with DAPI (150 nM), and the slides were cover-slipped with Prolong antifade mounting media (Molecular Probes #P36961). Using a 40X objective, at least ten random high-power fields, per condition, were captured with a Nikon W-1 Spinning Disk confocal microscope through the University of Maryland Baltimore CIBR confocal facility. The number of yH2AX-positive foci per cell was counted using ImageJ (unige.ch/medecine/bioimaging/files/3714/1208/5964/CellCounting.pdf). Individual cells with ten or more foci were considered positive for significant DNA damage. At least 300 cells were analyzed in each sample.
(§2) Reduced de novo pyrimidine synthesis mediated by MCT4-depletion promoted an accumulation of DNA damage (29). To test and quantify the magnitude of compound 1 effect on DNA damage, the four compound 1 responsive GBM neurosphere lines 913, 3691, 08-387, and 1079 were cultured in normoxia (21% oxygen) and hypoxia (1% oxygen) with a model-specific IC50 dose of compound 1 for 48 hours followed by immunocytochemical analysis of the DNA-damage marker g-H2AX. Table 1 is a summary of IC50 (nM or mM) values established for the seven glioblastoma neurosphere lines

In assay [2] the test system is 3691 glioblastoma neurosphere line. Description: gH2AX foci immunofluorescence (DNA damage). Format: cell-based, human. The conditions noted are these: IC50 dose. How it is done:
as §1, §2

Consider `CCn1c(CO)nn(-c2cc(O[C@@H](C)C(F)(F)F)c(C(=O)Nc3c(F)cccc3Cl)cc2F)c1=O` [Compound 1, N-(2-chloro-6-fluorophenyl)-4-[4-ethyl-4,5-dihydro-3-(hydroxymethyl)-5-oxo-1H-1,2,4-triazol-1-yl]-5-fluoro-2-[(1S)-2,2,2-trifluoro-1-methylethoxy]-benzamide], for which the “nuclei with multiple gH2AX-positive foci” value is listed as 32% in assay [1] (08-387, hypoxia, 48 hours (control 13.6%)) and 30% in assay [1] (08-387, normoxia, 48 hours (control 11.6%)). The g-H2AX positivity is recorded as 44.2% in assay [2] (3691, hypoxia, 48 hours (control 11.3%)) and 46% in assay [2] (3691, normoxia, 48 hours (control 9%)).
